Assay results taken from US4975372A, “Microbial transformation product of L-683,590” (Merck & Co., Inc., priority 1989, dated 1990).
Values joined by “and” are separate entries in the source; they are usually repeats but may differ in a detail not shown here. Equal values may be shown once. “Also recorded” adds a separate entry of the source. Read-outs that look alike come from different tables or passages of the source. Blank lines part the entries; values can stand above or below the compound they belong to.

Columns and labels:
[1] = reputed; EPO Publication No. 0184162; cited from earlier work
mouse T lymphocytes = experiment: T-cell proliferation assay (ionomycin plus PMA induced, tritiated thymidine uptake); type: cell-based, mouse (C57B1/6)
Experimental: The principle of this assay is to measure the proliferation of mouse T lymphocytes stimulated with the combination of ionomycin plus PMA. A positive sample in this assay will inhibit T-cell proliferation, as indicated by reduced tritiated thymidine uptake.
Purified L-685,487, as prepared by HPLC above, was dissolved in absolute ethanol at 1 mg/ml.
Spleens from C57B1/6 mice were taken under sterile conditions and gently dissociated in ice-cold RPMI 1640 culture medium (GIBCO, Grand Island, N.Y.) supplemented with 10% heat-inactivated fetal calf serum (GIBCO). Cells were pelleted by centrifugation at 1500 rpm for 8 minutes. Contaminating red cells were removed by treating the pellet with ammonium chloride lysing buffer (GIBCO) for 2 minutes at 4° C. Cold medium was added and cells were again centrifuged at 1500 rpm. for 8 minutes. T lymphocytes were then isolated by separation of the cell suspension on nylon wool columns as follows: Nylon wool columns were prepared by packing approximately 4 grams of washed and dried nylon wool into 20 ml plastic syringes. The columns were sterilized by autoclaving at 250° F. for 30 minutes. Nylon wool columns were wetted with warm (37° C.) culture medium and rinsed with the same medium. Washed spleen cells resuspended in warm medium were slowly applied to the nylon wool. The columns were then incubated in an upright position at 37° C. for 1 hour. Non-adherent T lymphocytes were eluted from the columns with warm culture medium and the cell suspensions were spun as above.
Purified T lymphocytes were resuspended at 2.5×10^5 cells/ml in complete culture medium composed of RPMI 1640 medium with 10% heat-inactivated fetal calf serum, […] glutamine, 1 mM sodium pyruvate, 2×10^-5 M 2-mercaptoethanol and 50 μg/ml gentamycin. Ionomycin was added at 250 ng/ml and PMA at 10 ng/ml. The cell suspension was immediately distributed into 96 well flat-bottom microculture plates (Costar) at 200 μl/well. The control, being the medium without test drug, and various below-indicated dilutions of the sample (above-describedpurified L-683,756) to be tested were then added in triplicate wells at 20 μl/well. L-679,934 was used as a standard. The culture plates were then incubated at 37° C. in a humidified atmosphere of 5% CO2 -95% air for 44 hours. The proliferation of T lymphocytes was assessed by measurement of tritiated thymidine incorporation. After 44 hours of culturing, the cells were pulse-labelled with 2 μ Ci/well of tritiated thymidine (NEN, Cambridge, Mass.). After another 4 hours of incubation, cultures were harvested on glass fiber filters using a multiple sample harvester. Radioactivity of filter discs corresponding to individual wells was measured by standard liquid scintillation counting methods (Betacounter). Mean counts per minute of replicate wells were calculated and the results expressed as percent inhibition of tritiated thymidine uptake (proliferation) as follows: [formula]

[2] = Solubility (physical characteristics); type: physicochemical; settings: methanol

Structure (SMILES): C=CC[C@@H]1/C=C(\C)C[C@H](C)C[C@H](OC)[C@H]2O[C@@](O)(C(=O)C(=O)N3CCCC[C@H]3C(=O)O[C@H](/C(C)=C/[C@@H]3CC[C@@H](O)[C@H](OC)C3)[C@H](C)[C@@H](O)CC1=O)[C@H](C)C[C@@H]2OC [FK-506]
effectiveness relative to cyclosporin [1]: 100 times

Structure (SMILES): C=CC[C@@H]1/C=C(\C)C[C@H](C)C[C@H](OC)[C@H]2O[C@@](O)(C(=O)C(=O)N3CCCC[C@H]3C(=O)O[C@H](/C(C)=C/[C@@H]3CC[C@@H](O)[C@H](OC)C3)[C@H](C)[C@@H](O)CC1=O)[C@H](C)C[C@@H]2OC.O [L679,934, reference compound]
% inhibition, standard (mouse T lymphocytes; 10 ng/ml): 99%

Solubility [2]: Solubility in methanol
Structure (SMILES): CC[C@@H]1/C=C(\C)CC(C)C[C@H](OC)C(O)[C@@H]2CC(C)C(O)(O2)C(=O)C(=O)N2CCCC[C@H]2C(=O)O[C@H](/C(C)=C/[C@@H]2CC[C@@H](O)C(OC)C2)[C@H](C)C(O)CC1=O (stereo partly drawn) [L-685,487]
inhibition at 0.00058 µg/mL (mouse T lymphocytes; Mus musculus, T-lymphocyte, 0.58 ng/ml): 0% | inhibition at 0.00087 µg/mL (mouse T lymphocytes; Mus musculus, T-lymphocyte, 0.87 ng/ml): 0% | inhibition at 0.0013 µg/mL (mouse T lymphocytes; Mus musculus, T-lymphocyte, 1.3 ng/ml): 9% | inhibition at 0.0019 µg/mL (mouse T lymphocytes; Mus musculus, T-lymphocyte, 1.9 ng/ml): 10% | inhibition at 0.0029 µg/mL (mouse T lymphocytes; Mus musculus, T-lymphocyte, 2.9 ng/ml): 10% | inhibition at 0.0044 µg/mL (mouse T lymphocytes; Mus musculus, T-lymphocyte, 4.4 ng/ml): 39% | inhibition at 0.0066 µg/mL (mouse T lymphocytes; Mus musculus, T-lymphocyte, 6.6 ng/ml): 71% | inhibition at 0.0099 µg/mL (mouse T lymphocytes; Mus musculus, T-lymphocyte, 9.9 ng/ml): 88% | inhibition at 0.015 µg/mL (mouse T lymphocytes; Mus musculus, T-lymphocyte, 15.0 ng/ml): 92% | inhibition at 0.022 µg/mL (mouse T lymphocytes; Mus musculus, T-lymphocyte, 22.0 ng/ml): 98% | inhibition at 0.033 µg/mL (mouse T lymphocytes; Mus musculus, T-lymphocyte, 33.0 ng/ml): 99% | inhibition at 0.05 µg/mL (mouse T lymphocytes; Mus musculus, T-lymphocyte, 50.0 ng/ml): 99% | IC50 (mouse T lymphocytes; Mus musculus, T-lymphocyte, T-cell proliferation, 3H-thymidine pulse 4 hours, harvest at 48 hours, read-out: IC50): 0.0049 µg/mL and 6.3 nM | IC50 (mouse T lymphocytes; Mus musculus, T-lymphocyte, generally in the range, read-out: IC50, general range): 6 to 12 nM | Inhibition of proliferation upon addition of IL2 (mouse T lymphocytes; addition of 50 units/m of recombinant human IL2): Inhibition of proliferation was reversed | inhibition of T-cell activation (immunosuppressive activity) (mouse T lymphocytes; qualitative): positive inhibition of T-cell activation; also recorded: positive immunosuppressive activity
